{
  "source": "paper PMC9653470",
  "about": "(2022)",
  "experiment": "fresh human plasma",
  "settings": "37 °C, up to 24 hours",
  "note": "Entries after “also recorded” stand apart in the source; their conditions may differ.",
  "data": [
    {"substance": "H2N-USPGYS-NH2", "values": [
      {"measurement": "fragment found", "result": "a, major; also recorded: b, major"}
    ]}
  ]
}
